Assay results taken from patent US20240141414A1, “CELL-FREE BIOSENSORS WITH DNA STRAND DISPLACEMENT CIRCUITS” (Northwestern University, priority 2021, published 2024).

Tests used:
Format in all cases: biochemical
[1] = target: T1, TtgR (Pseudomonas putida, UniProt Q88N29); assay: TtgR-regulated in vitro transcription with TMSD fluorescence output; conditions: TtgR-regulated reactions, with and without ligand
T1 construct: made in house; host or cells: E. coli Rosetta 2(DE3)pLysS, pET-28c plasmid (pJBL721)
T1 sequence (Q88N29 other isoform, or with tags, fused parts or gaps): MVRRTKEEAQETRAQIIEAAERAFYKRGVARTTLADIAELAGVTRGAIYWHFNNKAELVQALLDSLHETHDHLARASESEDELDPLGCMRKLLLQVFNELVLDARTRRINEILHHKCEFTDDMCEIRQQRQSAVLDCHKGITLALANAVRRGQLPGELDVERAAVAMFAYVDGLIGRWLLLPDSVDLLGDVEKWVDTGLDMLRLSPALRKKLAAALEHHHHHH
Description: (§1) In addition to TetR, we chose TtgR [44] and SmtB [45] as representative aTFs of the MarR family and SmtB/ArsR family, respectively. We placed the cognate operator sequence of each aTF 2-bp downstream of the T7 promoter and immediately upstream of the InvadeR sequences (FIG. 4a-c). When tetracycline was used to induce TetR-regulated reactions, we observed a strong and robust fluorescent signal visible in ˜10 minutes (FIG. 4d, FIG. 13a). […] We note that we observed a slight decrease in the induction speed from the TtgR-regulated reactions compared to that of the TetR-regulated reactions, likely due to the reduced ttgO DNA template concentration needed to accommodate TtgR's relatively weak binding affinity to its operator sequence.
(§2) Regulated IVT reactions additionally included a purified aTF at the indicated concentration and were equilibrated at 37° C. for ˜10 minutes. Immediately prior to plate reader measurements, 2 ng of T7 RNAP and, optionally, a ligand at the indicated concentration were added to the reaction. Reactions were then characterized on a plate reader as described in Plate reader quantification and micromolar equivalent fluorescein (MEF) standardization.

[2] = target: T2, SmtB (Synechococcus elongatus, UniProt P30340); assay: SmtB-regulated in vitro transcription with TMSD fluorescence output; conditions: SmtB-regulated reaction, optimized smtO-Hairpin2-InvadeR design
T2 construct: 6xHis (C); made in house; host or cells: E. coli Rosetta 2(DE3)pLysS, pET-28c plasmid (pJBL725)
T2 sequence (P30340 with tags, fused parts or gaps): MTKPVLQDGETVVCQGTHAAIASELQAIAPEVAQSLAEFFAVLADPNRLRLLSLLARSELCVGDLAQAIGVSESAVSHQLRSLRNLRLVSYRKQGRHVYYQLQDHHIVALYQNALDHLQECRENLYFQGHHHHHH
Description: as §1
We were immediately successful in adapting the system to TetR and TtgR (FIG. 4a, b). […]
as §2

[3] = target: T3, TetR (Escherichia coli, UniProt P04483)
T3 construct: made in house; host or cells: E. coli Rosetta 2(DE3)pLysS, pET-28c plasmid (pJBL701)
Source text: Next, we sought to determine whether the transcription of InvadeR can be regulated with an aTF, thus creating a ligand-responsive biosensor that uses TMSD outputs. This required us to insert an aTF operator sequence in between the T7 promotor and InvadeR sequence to allow an aTF to regulate transcription. […] To test if this spacing remained important in the TMSD platform, we used TetR as our model aTF to determine the optimum spacing for efficient repression in the presence of TetR and efficient transcription in the absence of TetR [41]. […] However, robust fluorescence signal was observed without TetR when using a 2-bp spacer, which was reduced to nearly baseline levels when regulated by TetR. […]
Using the 2-bp spacer, we next determined whether TetR can be de-repressed with its cognate ligand, anhydrotetracycline (aTc) to allow transcription of InvadeR (FIG. 3c). […]
as §2

SMILES: O=C1C[C@@H](c2ccc(O)cc2)Oc2cc(O)cc(O)c21 [naringenin]
- fluorescence activation by ligand [1]: robust fluorescence activation only in the presence of the ligand

SMILES: O=S(=O)([O-])[O-].[Zn+2] [ZnSO4]
- fluorescence activation by ligand [2]: clear activation of a SmtB-regulated reaction in the presence of ZnSO4 with low background signal

SMILES: Cc1c2c(c(O)c3c(O)cccc13)C(=O)[C@]1(O)C(=O)C(C(N)=O)=C(O)[C@@H](N(C)C)[C@@H]1C2 [aTc, anhydrotetracycline]
- time until fluorescence is visible ([3]; TetR-regulated InvadeR output induced with the ligand (aTc 10 μM)): ~10 min
- speed of fluorescence activation relative to the RNA aptamer platform ([3]; equimolar amounts of DNA template, TetR and aTc): approximately 5 times
